Results as given in PubChem BioAssay (NCI).
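Dose response: 5 concentrations. Exposure: 48 h. Format: 96-well plates. Endpoint: linear interpolation; highest concentration if not reached. GI50 = concentration required for 50% inhibition of growth. TGI: concentration producing complete growth inhibition.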

Columns and labels:
Assay in all cases: DTP human tumour cell line panel, 48 h
[1] = test system: MOLT-4 leukemia
[2] = test system: SK-MEL-2 melanoma
[3] = test system: DU-145 prostate
[4] = test system: HL-60(TB) leukemia
[5] = test system: SNB-75 CNS
[6] = test system: A498 renal
[7] = test system: ACHN renal
[8] = test system: PC-3 prostate
[9] = test system: EKVX NSCLC
[10] = test system: HCC-2998 colon

Compound | TGI [1] | TGI [2] | TGI [3] | TGI [4] | TGI [5] | TGI [6] | TGI [7] | TGI [8] | TGI [9] | GI50 [1] | GI50 [3] | GI50 [4] | GI50 [10] | TGI [10] | GI50 [5] | GI50 [6] | GI50 [7] | GI50 [8] | GI50 [9] | GI50 [2]
NS(=O)(=O)c1cc(C(=O)O)c(O)c2ccccc12 | > 100 µM | > 100 µM | > 100 µM | > 100 µM | > 100 µM | > 100 µM | > 100 µM | > 100 µM | > 100 µM | – | – | – | – | – | – | – | – | – | – | –
CC(C)COc1nc2c(c(=O)n(C)c(=O)n2C)n1C | > 100 µM | – | > 100 µM | > 100 µM | > 100 µM | > 100 µM | > 100 µM | > 100 µM | > 100 µM | > 100 µM | > 100 µM | > 100 µM | > 100 µM | > 100 µM | 47 µM | > 100 µM | > 100 µM | > 100 µM | > 100 µM | –
CCCCCCCCCC[C@H](O)[C@H](O)CC[C@@H](O)[C@H]1CC[C@@H]([C@H]2CC[C@H](CCCCCCC[C@@H](O)CC3=C[C@H](C)OC3=O)O2)O1 | 94.7 µM | – | – | 6.74 µM | 98.2 µM | 87.1 µM | > 100 µM | 40.7 µM | – | 23.9 µM | – | – | – | 47 µM | 25.8 µM | 17.7 µM | – | 11.7 µM | 18.5 µM | 27 µM
COc1ccc(/C=C2/SC(Nc3nc(-c4nc(NC5=NC(=O)/C(=C\c6ccc(OC)cc6)S5)sc4C)c(C)s3)=NC2=O)cc1 | > 50 µM | > 50 µM | > 19.7 µM | > 21.9 µM | – | 4.22 µM | 9.74 µM | 9.95 µM | 2.43 µM | 8.87 µM | 2.43 µM | 0.397 µM | 0.82 µM | 3.66 µM | – | 0.806 µM | 0.838 µM | 0.787 µM | 0.213 µM | 15.2 µM
C=CCC(N[C@@H](CO)c1ccccc1)c1cn(C(=O)OCC)c2ccccc12 (some centres undefined) | > 100 µM | > 100 µM | 86 µM | > 100 µM | – | 61.6 µM | 63 µM | > 100 µM | > 100 µM | 15.5 µM | 27.6 µM | 24.1 µM | 16.3 µM | 31.8 µM | – | 25.9 µM | 24.3 µM | 22.3 µM | 35.3 µM | 33.7 µM
C/C(=C(\c1ccc(OCCN2CCCCCC2)cc1)c1ccc(OC(=O)c2ccccc2)cc1)c1ccc(Cl)cc1 | 10.9 µM | 10.5 µM | 11.3 µM | 11.5 µM | – | 8.09 µM | 9.46 µM | 8.45 µM | 13.9 µM | 2.25 µM | 5.41 µM | 3.35 µM | 2.36 µM | 7.03 µM | – | 3.79 µM | 4.87 µM | 2.36 µM | 4.97 µM | 5.32 µM
COc1cccc(Nc2nc3ccccc3c3occc23)c1 | – | 30.6 µM | 22.9 µM | > 100 µM | – | – | 33.6 µM | 34.3 µM | 36.9 µM | – | 10.9 µM | 45 µM | 8.9 µM | 21.8 µM | – | – | 10.8 µM | 13.8 µM | 14.3 µM | 13 µM
Cn1c2c(c3c(Cl)nncc31)Cc1ccccc1-2 | – | – | 41 µM | – | > 100 µM | 34.5 µM | 54.3 µM | > 100 µM | 44.3 µM | 3.12 µM | 6.4 µM | – | 20.9 µM | > 100 µM | 76.8 µM | 11.4 µM | 11.6 µM | 31.8 µM | 5.79 µM | –
O=C(O)C1[O][Sb][O]C(C(=O)O)C1O (centres undefined) | > 100 µM | > 100 µM | > 100 µM | – | > 100 µM | > 100 µM | > 100 µM | > 100 µM | > 100 µM | > 100 µM | > 100 µM | – | – | – | > 100 µM | > 100 µM | > 100 µM | > 100 µM | > 100 µM | > 100 µM
CC1=CC(C)(C)NN1C1=NS(=O)(=O)c2ccccc2N1C | > 100 µM | > 100 µM | > 100 µM | > 100 µM | – | > 100 µM | > 100 µM | > 100 µM | > 100 µM | – | – | – | – | > 100 µM | – | – | – | – | – | –
CC1NC(=O)C2=C1C(=O)NC(=O)C2 (centres undefined) | – | > 100 µM | > 100 µM | > 100 µM | – | > 100 µM | > 100 µM | > 100 µM | > 100 µM | – | > 100 µM | > 100 µM | > 100 µM | > 100 µM | – | > 100 µM | > 100 µM | > 100 µM | > 100 µM | > 100 µM
O=C1c2ccccc2-c2c1c1ccccc1c(=O)n2CCCNCCn1c2c(c3ccccc3c1=O)C(=O)c1ccccc1-2 | – | 96.9 µM | 12 µM | 96.8 µM | 32.2 µM | 25.3 µM | 24.8 µM | 10.5 µM | 27.2 µM | – | 1.89 µM | 34.6 µM | – | – | 11.8 µM | 12.7 µM | 12.3 µM | 2.43 µM | 12.5 µM | 28.2 µM
O=C(c1ccc(Cl)cc1)C(O)c1ccc(Cl)cc1 (centres undefined) | 75.6 µM | > 100 µM | > 100 µM | 82.7 µM | > 100 µM | – | > 100 µM | > 100 µM | > 100 µM | – | – | – | – | > 100 µM | – | – | – | – | – | –
